Laboratory results reported in article PMC5636120, “Biochemical characterization of recombinant influenza A polymerase heterotrimer complex: Polymerase activity and mechanisms of action of nucleotide analogs” (PLoS ONE, 2017).
“And” between values parts separate entries of the source, which are not always exact repeats. Equal entries are not always repeated. Where two headings read alike, the source gives them in different places.

How the values were obtained:
[1] = test system: influenza A (A/Hong Kong/8/68); test: Antiviral activity (virus-induced cytopathic effect, CellTiterGlo) in infected MDCK cells; assay type: cell-based, Influenza A virus A/Hong Kong/8/68; conditions: for EC50: MDCK cells infected with Influenza A/HK/68, MOI 0.005, five day incubation, nucleoside form
Method: MDCK cells were seeded in 96-well plates at a density of 1 × 10^4 cells per well in 100 μL of MEM medium supplemented with 10% FBS. Medium was removed the next day and the cells were washed twice with 100 μL MEM medium supplemented with 0.125% (w/v) BSA (MEM-BSA). Serially diluted compounds were added to cells in 150 μL MEM-BSA and cells were infected with influenza A (A/Hong Kong/8/68, Advanced Biotechnologies Inc.) at MOI 0.005 in 50 μL of MEM-BSA medium supplemented with 8 μg/mL trypsin (Worthington, Lakewood, NJ). After five day incubation at 37°C, virus-induced cytopathic effect was determined by adding CellTiterGlo viability reagents (Promega, Madison, WI) and the luminescence signal was measured using Perkin Elmer’s Envision MultiLabel plate reader (Santa Clara, CA). The cytotoxicity of compounds in MDCK cells was determined in replicate plates with the same setup as used in the antiviral assay, except no virus was added to the cell culture. EC50 and CC50 values were calculated by non-linear regression analysis using GraphPad Prism (La Jolla, CA) and four parameter logistic sigmoidal dose-response (variable slope) equations.

in vitro = conditions: dog
[2] = biological target: recombinant influenza polymerase trimer (RdRp) (Influenza A virus, UniProt P03431); test: Mechanism of action, gel-based incorporation assay with miniHA template and capped 33P-m7G167 primer; assay type: biochemical, Influenza A virus H1N1 strain A/PR/8; conditions: 500 μM analog in place of GTP, 500 μM each CTP, UTP, ATP, miniHA template
Method: (§1) The PA, PB1 and PB2 genes of Influenza A virus RNA polymerase were amplified by reverse-transcription and PCR from H1N1 strain A/PR/8. The 3x FLAG tag was added to the N-terminal full-length PA and cloned into pFastBac1 vector (Life Technologies, Carlsbad, CA). Full-length PB1 and PB2 genes were cloned into pFastBac Dual vector (Life Technologies) as described previously. Recombinant baculovirus was generated for PA and PB1/PB2 using Sf9 cells and was used to co-infect Trichopulsia ni cells (Hi5) at 1.5 x 10^6 cells/ml in ESF-921 medium (Expression Systems, David, CA). Purification and biochemical characterization of the polymerase heterotrimer was described previously. The purified polymerase complex was stored at -80°C prior use.
Recombinant influenza polymerase trimer (80 ng/μL) was incubated with 595 nM ^33P-m^7G^167 and 1.6 μM miniHA template in buffer containing 50 mM HEPES (pH 7.8), 2 mM DTT, 5 mM magnesium acetate, 0.2 U/mL RNasin for 60 minutes at 37°C. After the endonuclease cleavage of ^33P-m^7G^167 was completed, 20 μM of endonuclease inhibitor 4-(1,4-bis(4-chlorobenzyl)piperidin-4-yl)-2,4-dioxobutanoic acid was added to the reaction mixture. The polymerase reactions were initiated by adding nucleotide analogs and three other natural NTPs (all at final concentrations of 500 μM) and 10 μCi α-^33P-ATP. Reactions were incubated at 37°C for 30 minutes and quenched with equal volumes of gel loading dye containing 90% formamide, 100 mM EDTA, 0.1% (w/v) bromphenol blue and xylene cyanol. Reactions were analyzed by electrophoresis (25% polyacrylamide, 8 M urea). The dried gels were exposed to phosphorimager screen and visualized using the Typhoon Trio and ImageQuant Software (GE, Piscataway, NJ.)

[3] = biological target: concentrated cRNP with endogenous viral template (Influenza A virus, UniProt P03431); conditions: 500 μM natural NTPs and/or analogs, 60 minutes
[4] = biological target: T1, recombinant influenza RdRp (PA/PB1/PB2 heterotrimer) (Influenza A virus, UniProt P03431); test: Apparent binding affinity (Kapp), single nucleotide incorporation; assay type: biochemical, Influenza A virus H1N1 strain A/PR/8; conditions: for Kapp: SNI-G template, ApG primer, 37°C, 35 minutes, concentration converting half of 9-mer to 10-14-mer; for Selectivity factor, Kapp(analog):Kapp(GTP): natural GTP over analog
Method: as §1
The apparent binding affinity Kapp was determined for GTP and T-1106-TP as described by Jin et al. 250 nM recombinant polymerase trimer was pre-incubated with 2.5 μM SNI-G template, 1 μM SNI-Pro promoter, and 400 μM ApG primer in a buffer containing 40 mM Tris-HCl (pH 7.0), 20 mM NaCl, 5 mM MgCl2, 2 mM DTT, and 0.2 U/μL RNasin at 37°C. The reaction was initiated by adding a mixture of 25 μM CTP, 25 μM UTP, 25 μCi of α-^33P-UTP, and various concentrations of GTP or analogs. Reactions proceeded for 35 minutes and were quenched with equal volumes of loading dye containing 90% formamide, 100 mM EDTA, 0.1% (w/v) amount of bromphenol blue and xylene cyanol. The products were separated by 25% PAGE, visualized, and quantified by autoradiography as described above. Data were fit with Eq I, where %Max and %Min are respectively the ratios of (10+11+12+13+14-mer)/ (9+10+11+12+13+14-mer) at the highest nucleotide concentration and the baseline level of mis-incorporation of CTP/UTP in the absence of the correct nucleotide (GTP) encoded by the template sequence, Kapp is the concentration at which half of the reactant (9-mer) is converted to products (10+11+12+13+14-mers), and S is the concentration of nucleotide analog.
Y=(%Max−%Min)⋅S/Kapp+S+%Min (I)

[5] = biological target: T1, recombinant influenza RdRp (PA/PB1/PB2 heterotrimer); parameters: method as in PMID 23874596; conditions: cited from earlier work
[6] = biological target: viral ribonucleoprotein complexes from detergent-disrupted Influenza A/PR/8/34 (Influenza A virus, UniProt P03431); test: Influenza polymerase inhibition (IC50) filter binding assay, ApG-primed RNA synthesis by cRNP; conditions: vs T-705-RTP
[7] = Influenza A virus, MDCK, 120 h, read-out: EC50

Nc1nc2c(ncn2[C@@H]2O[C@H](CO)[C@@H](O)[C@H]2F)c(=O)[nH]1 [2’FdG, 2’-deoxy, 2’F guanosine]
EC50 ([1]; Influenza A virus, MDCK, 120 h): 18 µM | EC50 ([1]; read-out: EC50): 19 ± 5 µM | CC50 at 5 day (in vitro): > 200 µM

Nc1nc2c(ncn2[C@@H]2O[C@H](COP(=O)(O)OP(=O)(O)OP(=O)(O)O)[C@@H](O)[C@H]2F)c(=O)[nH]1 [2’FdGTP]
Mode of action on RNA synthesis [2]: stably incorporated into RNA | Incorporation / mode of action in cRNP reactions [3]: stable incorporation

N#CC1(COP(=O)(O)OP(=O)(O)OP(=O)(O)O)OC(n2cnc3c(=O)[nH]c(N)nc32)C(F)C1O (stereo not drawn) [4’CN-FdGTP]
Mode of action on RNA synthesis [2]: direct chain-termination

N#C[C@]1(CO)O[C@@H](n2cnc3c(=O)[nH]c(N)nc32)[C@H](F)[C@@H]1O [4’CN-FdG]
EC50 [1, 7]: > 200 µM | CC50 at 5 day (in vitro): > 200 µM

C=C[C@]1(COP(=O)(O)OP(=O)(O)OP(=O)(O)O)O[C@@H](n2cnc3c(=O)[nH]c(N)nc32)[C@H](F)[C@@H]1O [4’vinyl-FdGTP]
Kapp [4]: 29 µM | Kapp ([4]; listed as 4'vinyl-FdGTP): 29.1 µM | Selectivity factor, Kapp(analog):Kapp(GTP) [4]: 3096 | Mode of action on RNA synthesis [2]: direct chain-termination

C=C[C@]1(CO)O[C@@H](n2cnc3c(=O)[nH]c(N)nc32)[C@H](F)[C@@H]1O [4’vinyl-FdG]
EC50 ([1]; Influenza A virus, MDCK, 120 h): 110 µM | EC50 ([1]; read-out: EC50): 116 ± 48 µM | CC50 at 5 day (in vitro): > 200 µM

Nc1nc2c(ncn2[C@@H]2O[C@H](COP(=O)(O)OP(=O)(O)OP(=O)(O)O)[C@@H](O)[C@H]2O)c(=O)[nH]1 [GTP]
Selectivity factor, Kapp(analog):Kapp(GTP) [4]: 1 | Kapp, reported value [5]: 8 nM

NC(=O)c1nc(F)cn([C@@H]2O[C@H](COP(=O)(O)OP(=O)(O)OP(=O)(O)O)[C@@H](O)[C@H]2O)c1=O [T-705-RTP]
Mode of action on RNA synthesis [2]: delayed chain-termination | Incorporation / mode of action in cRNP reactions [3]: neither incorporation

NC(=O)c1nc(F)c[nH]c1=O [T-705]
EC50 ([1]; Influenza A virus, MDCK, 120 h): 2.2 µM | EC50 ([1]; read-out: EC50): 2.4 ± 1.1 µM | CC50 (in vitro): > 100 µM

NC(=O)c1nccn([C@@H]2O[C@H](COP(=O)(O)OP(=O)(O)OP(=O)(O)O)[C@@H](O)[C@H]2O)c1=O [T-1106-TP]
Fold less potent than T-705 in the antiviral assays ([1]; vs T-705, MDCK cells): 12 | Times lower selectivity factor than the reported selectivity over T-705-TP ([4]; compared with reported selectivity): 6.3 | Selectivity factor, Kapp(analog):Kapp(GTP) [4]: 3 and 2.9 | Mode of action on RNA synthesis [2]: delayed chain termination | Incorporation / mode of action in cRNP reactions [3]: incorporation and chain termination | Fold more potent (lower enzymatic IC50) than T-705-RTP in the biochemical assay [6]: 3

NC(=O)c1nccn([C@@H]2O[C@H](CO)[C@@H](O)[C@H]2O)c1=O [T-1106]
EC50 [1, 7]: 27 ± 6 µM | CC50 at 5 day (in vitro): > 100 µM
